# Where “and” joins values, the source holds several entries; their conditions need not be identical. Equal entries are not always repeated. Where two headings read alike, the source gives them in different places.
# Columns and labels:
# [1] = Phase solubility of ivacaftor in cyclodextrin solutions; type: physicochemical; conditions: for solubility at 3 days: aqueous with cosolvent or surfactant or cyclodextrin, thermodynamic from solid
# Protocol: Excess amounts of powdered ivacaftor were suspended in different concentrations of different types of CD's (up to […] in the case of βCD, and up to […] in the case of αCD, γCD, and HPβCD). The suspensions were shaken at 3000 rpm at room temperature for 3 days. Then, samples were collected and filtered, and the concentration of ivacaftor was determined using HPLC, as described below. An Agilent HPLC workstation series 1100 (Agilent Technologies, Santa Clara, CA) was used for the analysis. The column used was Waters Symmetry C18 5 μm (4.6×150 mm), and the mobile phase consisted of 6:4 acetonitrile: water with 0.1% v/v trifluoroacetic acid (TFA) at a flow rate of 1 ml/min (at 25±2° C.). Detection was carried out using an Agilent Diode array detector (DAD) at 309 nm.
# [2] = cited from earlier work; for aqueous (water) solubility: room temperature
# [3] = oral 150 mg twice daily; cited from earlier work
# [4] = Ivacaftor solubility in the release medium; type: physicochemical; conditions: release medium (polysorbate 80 in DPBS), aqueous with cosolvent or surfactant or cyclodextrin; 0.4% v/v polysorbate 80 in 1×DPBS, 37° C.
structure (smiles),measurement,setting,value
"CC(C)(C)c1cc(C(C)(C)C)c(NC(=O)c2c[nH]c3ccccc3c2=O)cc1O [Ivacaftor, N-(2,4-Di-tert-butyl-5-hydroxyphenyl)-4-oxo-1,4-dihydroquinoline-3-carboxamide]",solubility in βCD relative to aqueous solubility,[1]; 10 μM βCD,about 24 times
same,solubility in γCD relative to aqueous solubility,[1]; 25 μM γCD,about 10 times
same,solubility in HPβCD relative to aqueous solubility,[1]; 50 μM HPβCD,about 1000 times
same,solubility in HPβCD relative to maximum βCD concentration,[1]; 50 μM HPβCD vs 10 μM βCD,about 40 times
same,solubility in HPβCD relative to αCD and γCD,[1]; 50 μM of each CD,100-150 times
same,solubility at 3 days,"[1]; HPβCD solution, 50 μM HPβCD, room temperature, 3 days shaking, read-out: ivacaftor solubility in HPβCD solution",50 µg/mL
same,solubility in βCD relative to αCD and γCD,[1]; same concentration (10 μM),5-6 times and 5-8 times
same,solubility at 3 days,"[1]; βCD solution, 10 μM βCD, read-out: ivacaftor solubility in βCD solution",1.2 µg/mL
same,solubility at 3 days,"[1]; γCD solution, 25 μM γCD, read-out: ivacaftor solubility in γCD solution",0.5 µg/mL
same,log P,[2],3.13
same,log P,[2]; listed as IVA,3.3
same,aqueous (water) solubility,[2],about 0.05 μg/ml
same,aqueous (water) solubility,[2]; listed as IVA,< 0.05 µg/mL
same,half-life,[3],9 to 12 h
same,solubility,[4],272 µg/mL

# From patent US20240100183A1, “COMPOSITIONS COMPRISING MOLECULES FOR CYSTIC FIBROSIS TREATMENT” (UNiversity of Iowa Research Foundation, priority 2020, published 2024)
